Read-outs that look alike come from different tables or passages of the source.
Tests used:
[1] = system: Mäusen; assay: Acute toxicity (orientating), single oral dose in mice; settings: in vivo, po, 300 mg/kg
Procedure: (§1) Die akute Toxizität der zu untersuchenden Substanzen wurde orientierend an Gruppen von je 10 Mäusen nach oraler Gabe einer Einzeldosis von 300 mg/kg bestimmt (Beobachtungszeit: 14 Tage): […]

[2] = as above; settings: mouse, in vivo, read-out: Orientierend akute Toxizität
Procedure: as §1

[3] = mice, groups of 10, single oral dose of 300 mg/kg, observation time 14 days

| Structure (SMILES) | Tieren gestorben [1] | LD50 at 336 h [2, 3] | LD50 at 336 h ([2]; po, 300 mg/kg) |
| --- | --- | --- | --- |
| C#CCOc1ccc(-c2nc3ncncc3[nH]2)c(OC)c1 [Substanz A, 8-(2-Methoxy-4-propargyloxyphenyl)-purin] | 0 von 10 | > 300 mg/kg |  |
| COC(=O)COc1ccc(-c2nc3ncncc3[nH]2)c(OC)c1 [Substanz B, 8-(2-Methoxy-4-methoxycarbonylmethoxyphenyl)-purin] | 0 von 10 | > 300 mg/kg |  |
| COc1cc(OCC#N)ccc1-c1nc2cncnc2[nH]1 [Substanz C, 8-(2-Methoxy-4-cyanmethoxyphenyl)-purin] | > 300 mg/kg (O von 10 Tieren gestorben) |  | > 300 mg/kg |
